Experimental data taken from the NIST ThermoML archive (doi:10.1016/j.fluid.2008.01.004).

Experiment: mn = molality of the nth substance listed, in mol/kg
Conditions: 101 kPa, Liquid; for speed of sound: Sing-around technique in a fixed-path interferometer; for molar conductivity: digital conductivity meter

O=P([O-])([O-])[O-].[Na+].[Na+].[Na+] [trisodium phosphate] + O
Conditions	mass density [kg/m3]	molar conductivity [S·m2/mol]	speed of sound [m/s]
283.15 K, m1 = 0.0026	–	0.0382	–
283.15 K, m1 = 0.0039	–	0.0361	–
283.15 K, m1 = 0.0053	–	0.0348	–
283.15 K, m1 = 0.0089	1001.51	–	1450.7
283.15 K, m1 = 0.0105	1001.84	0.0306	1451.2
283.15 K, m1 = 0.0116	1002.06	–	1451.5
283.15 K, m1 = 0.0132	1002.38	0.0293	1452
283.15 K, m1 = 0.0183	1003.44	0.0275	1453.4
283.15 K, m1 = 0.0234	1004.45	0.0259	1455
283.15 K, m1 = 0.0342	1006.62	0.0234	1457.8
283.15 K, m1 = 0.045	1008.77	0.0218	1460.7
283.15 K, m1 = 0.0563	1011	0.0211	1463.6
283.15 K, m1 = 0.0662	1012.94	0.0197	1466.1
283.15 K, m1 = 0.0767	–	0.0192	–
283.15 K, m1 = 0.088	1017.25	0.0186	1471.7
283.15 K, m1 = 0.0968	1018.97	0.0179	1473.9
283.15 K, m1 = 0.1086	1021.25	0.0178	1476.8
283.15 K, m1 = 0.1133	1022.18	0.0173	1477.9
283.15 K, m1 = 0.1296	1025.36	0.0166	1482
283.15 K, m1 = 0.141	1027.58	0.0161	1484.8
283.15 K, m1 = 0.1515	1029.56	0.0158	1487.3
283.15 K, m1 = 0.1638	1031.95	0.0159	1490.3
283.15 K, m1 = 0.1755	1034.17	0.0155	1493.1
283.15 K, m1 = 0.1868	1036.39	0.0153	1496
283.15 K, m1 = 0.1954	1037.96	0.0154	1498
283.15 K, m1 = 0.2224	1043.23	0.0145	1504.6
283.15 K, m1 = 0.2333	1045.32	0.0143	1507.2
283.15 K, m1 = 0.2509	1048.59	0.0142	1511.4
288.15 K, m1 = 0.0026	–	0.0395	–
288.15 K, m1 = 0.0039	–	0.0369	–
288.15 K, m1 = 0.0053	–	0.0363	–
288.15 K, m1 = 0.0089	1000.88	–	1469
288.15 K, m1 = 0.0105	1001.2	0.0325	1469.5
288.15 K, m1 = 0.0116	1001.42	–	1469.8
288.15 K, m1 = 0.0132	1001.74	0.0318	1470.2
288.15 K, m1 = 0.0183	1002.77	0.0292	1471.6
288.15 K, m1 = 0.0234	1003.77	0.0281	1473.1
288.15 K, m1 = 0.0342	1005.91	0.0253	1475.8
288.15 K, m1 = 0.045	1008.04	0.0236	1478.6
288.15 K, m1 = 0.0563	1010.23	0.0223	1481.5
288.15 K, m1 = 0.0662	1012.15	0.0216	1483.9
288.15 K, m1 = 0.0767	–	0.021	–
288.15 K, m1 = 0.088	1016.4	0.0199	1489.3
288.15 K, m1 = 0.0968	1018.1	0.0196	1491.5
288.15 K, m1 = 0.1086	1020.35	0.0191	1494.3
288.15 K, m1 = 0.1133	1021.28	0.0188	1495.4
288.15 K, m1 = 0.1296	1024.4	0.0181	1499.3
288.15 K, m1 = 0.141	1026.61	0.0175	1502.1
288.15 K, m1 = 0.1515	1028.56	0.0174	1504.5
288.15 K, m1 = 0.1638	1030.93	0.0174	1507.4
288.15 K, m1 = 0.1755	1033.12	0.0168	1510.1
288.15 K, m1 = 0.1868	1035.32	0.0165	1512.9
288.15 K, m1 = 0.1954	1036.87	0.0162	1514.8
288.15 K, m1 = 0.2224	1042.08	0.0153	1521.3
288.15 K, m1 = 0.2333	1044.14	0.0152	1523.9
288.15 K, m1 = 0.2509	1047.38	0.015	1527.9
293.15 K, m1 = 0.0026	–	0.0406	–
293.15 K, m1 = 0.0039	–	0.0379	–
293.15 K, m1 = 0.0053	–	0.038	–
293.15 K, m1 = 0.0089	999.952	–	1485.1
293.15 K, m1 = 0.0105	1000.27	0.0342	1485.6
293.15 K, m1 = 0.0116	1000.49	–	1486
293.15 K, m1 = 0.0132	1000.8	0.0333	1486.3
293.15 K, m1 = 0.0183	1001.83	0.0309	1487.7
293.15 K, m1 = 0.0234	1002.81	0.0297	1489.2
293.15 K, m1 = 0.0342	1004.92	0.0264	1491.8
293.15 K, m1 = 0.045	1007.02	0.0249	1494.5
293.15 K, m1 = 0.0563	1009.2	0.0236	1497.3
293.15 K, m1 = 0.0662	1011.09	0.0227	1499.7
293.15 K, m1 = 0.0767	–	0.0218	–
293.15 K, m1 = 0.088	1015.29	0.0209	1504.9
293.15 K, m1 = 0.0968	1016.97	0.0206	1507
293.15 K, m1 = 0.1086	1019.2	0.0201	1509.7
293.15 K, m1 = 0.1133	1020.11	0.0198	1510.8
293.15 K, m1 = 0.1296	1023.21	0.0189	1514.6
293.15 K, m1 = 0.141	1025.39	0.0185	1517.3
293.15 K, m1 = 0.1515	1027.32	0.0182	1519.7
293.15 K, m1 = 0.1638	1029.67	0.0181	1522.5
293.15 K, m1 = 0.1755	1031.84	0.0176	1525.2
293.15 K, m1 = 0.1868	1034.01	0.0172	1527.8
293.15 K, m1 = 0.1954	1035.55	0.0171	1529.7
293.15 K, m1 = 0.2224	1040.71	0.0162	1536
293.15 K, m1 = 0.2333	1042.76	0.016	1538.5
293.15 K, m1 = 0.2509	1045.97	0.0157	1542.4
298.15 K, m1 = 0.0026	–	0.0415	–
298.15 K, m1 = 0.0039	–	0.0401	–
298.15 K, m1 = 0.0053	–	0.0392	–
298.15 K, m1 = 0.0089	998.77	–	1499.3
298.15 K, m1 = 0.0105	999.088	0.0359	1499.8
298.15 K, m1 = 0.0116	999.3	–	1500.2
298.15 K, m1 = 0.0132	999.611	0.0347	1500.5
298.15 K, m1 = 0.0183	1000.62	0.0328	1501.8
298.15 K, m1 = 0.0234	1001.6	0.031	1503.3
298.15 K, m1 = 0.0342	1003.68	0.028	1505.8
298.15 K, m1 = 0.045	1005.76	0.0263	1508.5
298.15 K, m1 = 0.0563	1007.91	0.025	1511.1
298.15 K, m1 = 0.0662	1009.78	0.0239	1513.4
298.15 K, m1 = 0.0767	–	0.0231	–
298.15 K, m1 = 0.088	1013.95	0.0221	1518.5
298.15 K, m1 = 0.0968	1015.61	0.0217	1520.6
298.15 K, m1 = 0.1086	1017.82	0.0211	1523.3
298.15 K, m1 = 0.1133	1018.73	0.0207	1524.3
298.15 K, m1 = 0.1296	1021.79	0.0199	1528
298.15 K, m1 = 0.141	1023.96	0.0195	1530.7
298.15 K, m1 = 0.1515	1025.87	0.0193	1532.9
298.15 K, m1 = 0.1638	1028.19	0.0191	1535.7
298.15 K, m1 = 0.1755	1030.35	0.0186	1538.3
298.15 K, m1 = 0.1868	1032.5	0.018	1540.8
298.15 K, m1 = 0.1954	1034.03	0.0178	1542.7
298.15 K, m1 = 0.2224	1039.14	0.0169	1548.8
298.15 K, m1 = 0.2333	1041.17	0.0168	1551.2
298.15 K, m1 = 0.2509	1044.36	0.0163	1555
303.15 K, m1 = 0.0026	–	0.0409	–
303.15 K, m1 = 0.0039	–	0.0404	–
303.15 K, m1 = 0.0053	–	0.0398	–
303.15 K, m1 = 0.0089	997.355	–	1511.7
303.15 K, m1 = 0.0105	997.668	0.0367	1512.1
303.15 K, m1 = 0.0116	997.879	–	1512.5
303.15 K, m1 = 0.0132	998.187	0.0355	1512.8
303.15 K, m1 = 0.0183	999.189	0.0333	1514.1
303.15 K, m1 = 0.0234	1000.15	0.0318	1515.6
303.15 K, m1 = 0.0342	1002.22	0.029	1518
303.15 K, m1 = 0.045	1004.28	0.0274	1520.6
303.15 K, m1 = 0.0563	1006.41	0.0259	1523.2
303.15 K, m1 = 0.0662	1008.27	0.0248	1525.5
303.15 K, m1 = 0.0767	–	0.0238	–
303.15 K, m1 = 0.088	1012.39	0.023	1530.5
303.15 K, m1 = 0.0968	1014.04	0.0226	1532.4
303.15 K, m1 = 0.1086	1016.24	0.0216	1535
303.15 K, m1 = 0.1133	1017.13	0.0215	1536.1
303.15 K, m1 = 0.1296	1020.18	0.0208	1539.6
303.15 K, m1 = 0.141	1022.32	0.0201	1542.2
303.15 K, m1 = 0.1515	1024.22	0.0198	1544.4
303.15 K, m1 = 0.1638	1026.53	0.0198	1547.1
303.15 K, m1 = 0.1755	1028.66	0.0193	1549.6
303.15 K, m1 = 0.1868	1030.8	0.0186	1552.1
303.15 K, m1 = 0.1954	1032.32	0.0182	1553.9
303.15 K, m1 = 0.2224	1037.39	0.0173	1559.9
303.15 K, m1 = 0.2333	1039.41	0.0171	1562.2
303.15 K, m1 = 0.2509	1042.57	0.0167	1565.9
